From PubChem BioAssay AID330 (DTP/NCI, 2004)
Values joined by “and” are separate entries in the source; they are usually repeats but may differ in a detail not shown here. Equal values may be shown once. Inconclusive results and toxic doses are left out. The calls were made as follows: active = survival T/C of 150% or more; inactive = T/C below 125% in these data.

Tested on: P388 leukemia ip, CD2F1 mice, survival T/C
Assay: NCI In Vivo Anticancer Drug Screen. Data for tumor model P388 Leukemia (intraperitoneal) in CD2F1 (CDF1) mice
Conditions: endpoint: median survival time, higher = longer survival
How it was run: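 Mice carrying the transplanted tumor received test compound or vehicle. Survival was recorded in each group, and the value is the treated-group measurement divided by that of the vehicle-treated control group.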

Measured: T/C

CC[C@]1(O)C[C@H]2CN(CCc3c([nH]c4ccccc34)[C@@](C(=O)OC)(c3cc4c(cc3OC)N(C=O)[C@H]3[C@@](O)(C(=O)OC)[C@H](OC(C)=O)[C@]5(CC)C=CCN6CC[C@]43[C@@H]65)C2)C1
inactive: dose: 0.08 mg/kg/injection, schedule: Q01DX009 (ip), vehicle: water 115 % of control | dose: 0.18 mg/kg/injection, schedule: Q01DX005 (ip), vehicle: saline 110 % of control and 123 % of control | dose: 0.22 mg/kg/injection, schedule: Q01DX009 (ip), vehicle: saline 114 % of control | dose: 0.22 mg/kg/injection, schedule: Q01DX009 (ip), vehicle: water 113 % of control | dose: 0.25 mg/kg/injection, schedule: Q01DX001 (ip), vehicle: saline with Tween-80 115 % of control | dose: 0.25 mg/kg/injection, schedule: Q01DX001 (iv), vehicle: saline 122 % of control | dose: 0.25 mg/kg/injection, schedule: Q04DX003 (iv), vehicle: saline 120 % of control | dose: 0.3 mg/kg/injection, schedule: Q01DX005 (ip), vehicle: saline 112 % of control | dose: 0.33 mg/kg/injection, schedule: Q01DX009 (ip), vehicle: saline 113 % of control | dose: 0.36 mg/kg/injection, schedule: Q04DX003 (iv), vehicle: saline 119 % of control and 123 % of control | dose: 0.37 mg/kg/injection, schedule: Q04DX002 (ip), vehicle: saline 117 % of control | dose: 0.4 mg/kg/injection, schedule: Q04DX003 (ip), vehicle: saline 113 % of control | dose: 0.5 mg/kg/injection, schedule: Q04DX003 (oral), vehicle: water 100 % of control | dose: 1.0 mg/kg/injection, schedule: Q04DX003 (oral), vehicle: water 106 % of control | dose: 2.0 mg/kg/injection, schedule: Q04DX003 (oral), vehicle: water 102 % of control | dose: 2.7 mg/kg/injection, schedule: Q04DX003 (iv), vehicle: saline 100 % of control | dose: 3.0 mg/kg/injection, schedule: Q04DX002 (ip), vehicle: saline 99 % of control | dose: 4.0 mg/kg/injection, schedule: Q01DX001 (iv), vehicle: saline 121 % of control | dose: 4.0 mg/kg/injection, schedule: Q04DX003 (oral), vehicle: water 110 % of control | dose: 4.5 mg/kg/injection, schedule: Q01DX001 (ip), vehicle: saline 104 % of control
active: dose: 0.06 mg/kg/injection, schedule: Q01DX010 (ip), vehicle: saline 168 % of control | dose: 0.08 mg/kg/injection, schedule: Q01DX009 (ip), vehicle: saline 172 % of control | dose: 0.12 mg/kg/injection, schedule: Q01DX009 (ip), vehicle: water 166 % of control | dose: 0.12 mg/kg/injection, schedule: Q04DX003 (ip), vehicle: saline 163 % of control | dose: 0.13 mg/kg/injection, schedule: Q01DX005 (ip), vehicle: saline 161 % of control and 168 % of control | dose: 0.13 mg/kg/injection, schedule: Q01DX010 (ip), vehicle: saline 181 % of control | dose: 0.15 mg/kg/injection, schedule: Q01DX009 (ip), vehicle: saline 190 % of control | dose: 0.2 mg/kg/injection, schedule: Q01DX009 (ip), vehicle: saline 169 % of control | dose: 0.2 mg/kg/injection, schedule: Q04DX003 (ip), vehicle: water 196 % of control | dose: 0.25 mg/kg/injection, schedule: Q01DX005 (ip), vehicle: saline 180 % of control and 184 % of control | dose: 0.25 mg/kg/injection, schedule: Q01DX010 (ip), vehicle: saline 177 % of control | dose: 0.3 mg/kg/injection, schedule: Q04DX002 (ip), vehicle: saline 150 % of control | dose: 0.36 mg/kg/injection, schedule: Q01DX009 (ip), vehicle: water 150 % of control | dose: 0.36 mg/kg/injection, schedule: Q04DX003 (ip), vehicle: saline 167 % of control and 169 % of control and 174 % of control | dose: 0.39 mg/kg/injection, schedule: Q04DX002 (ip), vehicle: saline 154 % of control and 164 % of control | dose: 0.4 mg/kg/injection, schedule: Q01DX005 (ip), vehicle: saline 171 % of control | dose: 0.43 mg/kg/injection, schedule: Q04DX002 (ip), vehicle: saline 153 % of control and 176 % of control | dose: 0.44 mg/kg/injection, schedule: Q04DX002 (ip), vehicle: saline 162 % of control | dose: 0.5 mg/kg/injection, schedule: Q04DX004 (ip), vehicle: saline 169 % of control | dose: 0.53 mg/kg/injection, schedule: Q04DX003 (ip), vehicle: saline 179 % of control and 182 % of control | dose: 0.6 mg/kg/injection, schedule: Q01DX009 (ip), vehicle: saline 200 % of control | dose: 0.6 mg/kg/injection, schedule: Q04DX003 (ip), vehicle: saline 198 % of control | dose: 0.65 mg/kg/injection, schedule: Q04DX002 (ip), vehicle: saline 161 % of control and 168 % of control | dose: 0.67 mg/kg/injection, schedule: Q04DX002 (ip), vehicle: saline 174 % of control | dose: 0.72 mg/kg/injection, schedule: Q04DX002 (ip), vehicle: saline 158 % of control and 192 % of control | dose: 0.8 mg/kg/injection, schedule: Q01DX005 (ip), vehicle: saline 186 % of control | dose: 0.8 mg/kg/injection, schedule: Q04DX003 (ip), vehicle: water 191 % of control | dose: 0.8 mg/kg/injection, schedule: Q04DX003 (iv), vehicle: saline 161 % of control and 168 % of control | dose: 1.0 mg/kg/injection, schedule: Q01DX003 (ip), vehicle: saline 163 % of control | dose: 1.0 mg/kg/injection, schedule: Q04DX002 (ip), vehicle: saline 184 % of control | dose: 1.0 mg/kg/injection, schedule: Q04DX003 (iv), vehicle: saline 182 % of control | dose: 1.08 mg/kg/injection, schedule: Q04DX002 (ip), vehicle: saline 167 % of control and 177 % of control | dose: 1.2 mg/kg/injection, schedule: Q04DX002 (ip), vehicle: saline 169 % of control and 179 % of control | dose: 1.2 mg/kg/injection, schedule: Q04DX003 (iv), vehicle: saline 173 % of control and 177 % of control | dose: 1.3 mg/kg/injection, schedule: Q01DX001 (ip), vehicle: saline 156 % of control | dose: 1.5 mg/kg/injection, schedule: Q04DX002 (ip), vehicle: saline 161 % of control | dose: 1.8 mg/kg/injection, schedule: Q04DX002 (ip), vehicle: saline 191 % of control and 200 % of control | dose: 1.8 mg/kg/injection, schedule: Q04DX003 (iv), vehicle: saline 167 % of control and 182 % of control | dose: 2.0 mg/kg/injection, schedule: Q01DX001 (ip), vehicle: Klucel (hydroxypropylcellulose) (HPC) 155 % of control and 162 % of control | dose: 2.0 mg/kg/injection, schedule: Q01DX001 (ip), vehicle: saline with Tween-80 157 % of control | dose: 2.0 mg/kg/injection, schedule: Q01DX001 (iv), vehicle: saline 154 % of control | dose: 2.0 mg/kg/injection, schedule: Q04DX002 (ip), vehicle: saline 182 % of control | dose: 2.7 mg/kg/injection, schedule: Q04DX003 (ip), vehicle: saline 179 % of control | dose: 3.0 mg/kg/injection, schedule: Q01DX001 (ip), vehicle: saline 170 % of control and 192 % of control | dose: 4.0 mg/kg/injection, schedule: Q01DX001 (ip), vehicle: Klucel (hydroxypropylcellulose) (HPC) 167 % of control and 174 % of control | dose: 4.0 mg/kg/injection, schedule: Q01DX001 (ip), vehicle: saline with Tween-80 168 % of control | dose: 8.0 mg/kg/injection, schedule: Q01DX001 (ip), vehicle: Klucel (hydroxypropylcellulose) (HPC) 194 % of control

NNc1ncnc2cccc(Cl)c12
inactive: dose: 60.0 mg/kg/injection, schedule: Q01DX005 (ip), vehicle: saline with Tween-80 94 % of control | dose: 120.0 mg/kg/injection, schedule: Q01DX005 (ip), vehicle: saline with Tween-80 98 % of control | dose: 240.0 mg/kg/injection, schedule: Q01DX005 (ip), vehicle: saline with Tween-80 92 % of control

CSc1nc2c(NN)ncnc2s1
inactive: dose: 80.5 mg/kg/injection, schedule: Q01DX001 (ip), vehicle: distilled water + alcohol 106 % of control | dose: 161.0 mg/kg/injection, schedule: Q01DX001 (ip), vehicle: distilled water + alcohol 102 % of control | dose: 322.0 mg/kg/injection, schedule: Q01DX001 (ip), vehicle: distilled water + alcohol 102 % of control
